From patent US20200121812A1 (Teva Pharmaceuticals International GmbH, priority 2015, published 2020)

What was measured:
dopamine in the striatum = assay: Microdialysis in Sprague-Dawley rats; format: in vivo
[1] = cited from earlier work
6-OHDA lesioned rats = conditions: cited from earlier work; for effectiveness on motor performance compared to L-DOPA: as disclosed in WO2014/122184A1
striatal dopamine = conditions: cited from earlier work; for increase and prolongation of the output of striatal dopamine: WO2004/056724 and WO2007/093450
Parkinson models = conditions: cited from earlier work
[2] = cited from earlier work; remark: listed apart in the source
[3] = test system: striatum (extracellular L-DOPA, DA and metabolites); assay: Microdialysis in Wistar Rats (striatal dialysate levels after COMTi pretreatment); format: in vivo; conditions: COMTi 30 mg/kg p.o. 2 hours before SD-1077/Carbidopa 50/25 mg/kg p.o.; FIG. 4
[4] = test system: advanced PD patients with motor fluctuations; assay: Clinical trial of opicapone add on to deuterated levodopa/carbidopa; format: in vivo, human; conditions: add on opicapone 20 mg once daily, 12 weeks; expected
[5] = plus carbidopa, compared to conventional levodopa plus carbidopa
[6] = opicapone before levodopa (sequential dosing) compared to concomitant administration, US2014/0045900A1

In the case of N[C@@H](Cc1ccc(O)c(O)c1)C(=O)O [levodopa], the “dopamine in the extracellular space in the striatal brain tissue” value (dopamine in the striatum; plus carbidopa) is listed as “increase”, the half life ([1]; in vivo) is listed as “about 1.5 hours” and the “share of an oral dose that reaches the brain” value ([1]; oral) is listed as 1%.
In the case of [2H][C@@H](c1ccc(O)c(O)c1)[C@]([2H])(N)C(=O)O [α,β-D2-L-DOPA, S/S-2-amino-2,3-dideutero-3-(3,4-dihydroxyphenyl) propionic acid], the “effectiveness on motor performance compared to L-DOPA” value (shortened to “effectiveness … compared to L-DOPA”) (6-OHDA lesioned rats) is listed as “as effective as L-DOPA at lower doses”, the “increase and prolongation of the output of striatal dopamine” value (striatal dopamine) is listed as “significantly more than L-DOPA” and the striatal dopamine concentrations (striatal dopamine; compared with L-DOPA and α,β,β-D3-L-DOPA) is listed as “highest”.
For “L-2-amino-2,3,3*-trideutero-3-(3,4-dihydroxyphenyl) propionic acid [Composition 1]”, the “effectiveness … compared to L-DOPA” value (6-OHDA lesioned rats) is given as “as effective as L-DOPA at lower doses”, the “observed dyskinesia side effects relative to levodopa” value (6-OHDA lesioned rats; rat model of Parkinson's disease, at equivalent motor effect, WO2014/122184A1) is given as 50% and the “dose yielding equivalent motor effect to levodopa, as % of the levodopa dose” value (6-OHDA lesioned rats; rat model of Parkinson's disease, WO2014/122184A1) is given as 35%.
For [2H]C([2H])(c1ccc(O)c(O)c1)[C@]([2H])(N)C(=O)O [α,β,β-D3-L-DOPA, L-2-Amino-2,3,3-trideutero-3-(3,4-dihydroxyphenyl) propionic acid], the “effectiveness … compared to L-DOPA” value (6-OHDA lesioned rats) is listed as “as effective as L-DOPA at lower doses”, the “increase and prolongation of the output of striatal dopamine” value (striatal dopamine) is listed as “significantly more than L-DOPA” and the “striatal dopamine levels compared to L-DOPA” value (striatal dopamine; in vivo) is listed as “higher longer-lasting”. The “equi-effective dose compared to L-DOPA” value (Parkinson models; in vivo) was “about 60%” and the “motor activity compared to L-DOPA” value (Parkinson models; several Parkinson models, Malmlof et al.) was “improved”.
In the case of Cc1ccc(C(=O)c2cc(O)c(O)c([N+](=O)[O-])c2)cc1 [tolcapone], the hepatotoxicity ([2]; after market launch) is listed as “several cases of hepatotoxicity” and the “crossing of the BBB” value ([2]; in vivo) is listed as “crosses the BBB”.
For [2H]C([2H])(c1ccc(O)c(O)c1)[C@]([2H])(N)C(=O)O [d3-L-DOPA], the “bioavailability of d3-dopamine in the striatum” value (dopamine in the striatum; 50 mg/kg ip, rats, compared to conventional L-DOPA (50 mg/kg ip), FIG. 1) was “significantly increased”.
In the case of [2H]C([2H])(c1ccc(O)c(O)c1)[C@]([2H])(N)C(=O)O [Deulevodopa], the central bioavailability (dopamine in the striatum; [5]) is reported as “increased” and the “half life of dopamine” value (dopamine in the striatum; [5]) is reported as “about doubled”.
In the case of Cc1c(Cl)c(C)[n+]([O-])c(Cl)c1-c1noc(-c2cc(O)c(O)c([N+](=O)[O-])c2)n1 [opicapone, 2,5-dichloro-3-[5-(3,4-dihydroxy-5-nitrophenyl]-1,2,4-oxadiazol-3-yl)-4,6-dimethylpyridine 1-oxide], the “extracellular striatal levels of deuterated L-DOPA (SD-1077)” value [3] is listed as “more effective than entacapone”, the “increase of ON time without dyskinesia compared to placebo” value [4] is listed as “about 40 min” and the levodopa exposure ([2]; Parkinson's patients) is listed as “increase levodopa exposure in a dose-dependent manner”. For the same compound, the motor outcomes ([2]; Parkinson's patients) was “improve”, the “food effect on rate and extent of absorption” value ([2]; US2014/0045900A1) was “marked food effect” and the “levodopa Cmax” value [2, 6] was “decrease”. The levodopa systemic exposure [2, 6] was “increase”.
